Test results as given in EP0812835B1, “OPTICALLY ACTIVE THIAZOLIDINONE DERIVATIVES” (SANKYO COMPANY LIMITED, priority 1995, dated 1996).
Marks after values point to notes of the source that are not given here.

Key:
[1] = Stability of compounds (storage, residual ratio by high pressure liquid chromatography); type: physicochemical; conditions: for storage stability: in words
Experimental: About 2 mg of the test compound was accurately weighed and placed in a brown bottle. The bottle was left to stand at a dark place at room temperature (24-26°C) for 4 weeks and a residual ratio (%) of the test compound was measured by high pressure liquid chromatography (column: Inertsil ODS-3, eluting solvent: 10 mM (pH=7.0) phosphoric acid buffer/acetonitrile=80/20).

Collateral Vessel [2] = experiment: Collateral vessel dilating action by administration into the portal vein (first-pass effect test); type: in vivo, Beagle dogs (male); conditions: administered into the portal vein, compared with intravenous administration, 60 minutes
Experimental: Collateral Vessel Dilating Action by Administration into the Portal Vein
While test specimens were prepared according to the method of Test example 1, the animal was laparotomized along the abdominal median line, and a branch of the mesenteric vein was removed and incised so as to administer the test drug into the portal vein. A polyethylene cannula (Atom intravenous catheter 2F) was inserted antegrade into this vein to reside in the portal vein, and then the test drug was administered through it. In order to test the first-pass effect of the test drug, it was first administered intravenously (inguinal vein) to determine collateral vessel dilating action of the drug for 60 minutes. The same test drug was then administered into the portal vein 2 or 3 hours later to determine collateral vessel dilating action for 60 minutes, and those actions were compared with each other.

aspirin-induced ulcer = experiment: Inhibition of aspirin-induced ulcer; type: in vivo, Donryu strain male rats; conditions: for Inhibition rate (%): 1 hour before aspirin, area of ulceration vs control group
Experimental: Inhibition of aspirin-induced ulcer
As a test animal, 10 Donryu strain male rats each weighing 200 g-250 g were used in one group. The rats were fasted before the experiment for 24 hours but they could freely drink water. The test compounds were suspended in 0.5% carboxymethyl cellulose (CMC) solution. Meanwhile, for a control group, 0.5% CMC solution was used.
The test compound was orally administered (0.1 ml/100 g body weight) to the rats and an aspirin solution (150 mg/ml: suspended in 0.5% CMC solution) was orally administered (0.1 ml/100 g body weight) to the rats 1 hour later. Four hours after the administration of the aspirin solution, the rats were sacrificed using carbon dioxide gas and the stomach of each rat was taken out. Into the stomachs were poured 10 ml of 1% formalin solution to allow the stomachs to expand, and the stomachs were immersed in 1% formalin solution in a beaker for about 15-20 minutes. Then, each stomach was cut along the greater curvature thereof and an area of the ulceration in the gastric mucosa was measured by means of an image analysis apparatus [Luzex-F: manufactured by Nireko Co., Ltd.]. The average value of the area of the ulceration of each group was calculated from the area of the ulceration of each rat and the inhibition rate was obtained by comparing the average value of the test group with that of the control group.

Collateral Vessel [3] = experiment: Collateral vessel dilating action by intravenous administration (Collateral Index, carotid artery occlusion); type: in vivo, Beagle dogs (male); conditions: dose of 0.3 mg/kg, intravenous (inguinal vein), anesthetized dogs
Experimental: Collateral Vessel Dilating Action by Intravenous Administration
Beagle dogs (male) weighing 9 to 13 kg were anesthetized by intravenous injection of pentobarbital at a dose of 30 mg/kg and tested under artificial respiration. In order to measure the pressure of the left carotid artery, a polyethylene cannula (Atom intravenous catheter 2F) was inserted […] into one branch of the left thyroid artery. The left carotid artery upstream from this pressure measurement site was occluded for 1 minute with an arterial clamp, and the pressure immediately before occlusion (P) and the decrease in peripheral pressure (ΔP) were measured. Next, the test drug was administered through another polyethylene cannula inserted into the inguinal vein. The left carotid artery was occluded for 1 minute after 5, 15, 30, 45 and 60 minutes, and pressure immediately before occlusion (Pa) and the decrease in peripheral pressure (ΔPa) each time were measured. Collateral vessel dilating effect (Collateral Index = CI) of the test drug was determined according to the following formula: CI = 100 - (ΔPa/Pa) x 100/(ΔP/P) [formula]

C[C@@H](CO[N+](=O)[O-])NC(=O)[C@@H]1CSC(=O)N1 [Example 1, (4R)-N-[(1S)-1-Methyl-2-nitroxyethyl]-2-oxothiazolidin-4-vl-carboxamide]
Residual ratio (%) ([1]; dark place at room temperature (24-26°C) for 4 weeks, brown bottle): 101.2% | storage stability ([1]; as compared with the 1:1 mixture of Example 1 and the (4R),(1R)-isomer): excellent storage stability | storage stability ([1]; as compared with the (4R),(1R)-isomer): excellent storage stability | collateral vessel dilating action (Collateral Vessel [2]): excellent collateral vessel dilating action | Inhibition rate (%) (aspirin-induced ulcer; 30 mg/kg orally, p<0.05): 63.58*^) % | Inhibition rate (%) (aspirin-induced ulcer; 100 mg/kg orally, p<0.005): 80.15**^) % | Inhibition rate (%) (aspirin-induced ulcer; 300 mg/kg orally, p<0.005): 93.17**^) % | anti-ulcerative action (aspirin-induced ulcer; result in words, summary of Table 4): excellent anti-ulcerative action | CI(60) (Collateral Vessel [3]): > 10

CCC[C@@H](CO[N+](=O)[O-])NC(=O)[C@@H]1CSC(=O)N1 [Example 5, (4R)-N-[(1S)-1-Propyl-2-nitroxyethyl]-2-oxothiazolidin-4-yl-carboxamide]
CI(60) (Collateral Vessel [3]): > 10

CCCC[C@@H](CO[N+](=O)[O-])NC(=O)[C@@H]1CSC(=O)N1 [Example 6, (4R)-N-[(1S)-1-Butyl-2-nitroxyethyl]-2-oxothiazolidin-4-yl-carboxamide]
CI(60) (Collateral Vessel [3]): > 10

CC(C)C[C@@H](CO[N+](=O)[O-])NC(=O)[C@@H]1CSC(=O)N1 [Example 8, (4R)-N-[(1S)-1-Isobutyl-2-nitroxyethyl]-2-oxothiazolidin-4-yl-carboxamide]
CI(60) (Collateral Vessel [3]): > 10
